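Five compound concentrations were applied to cells in 96-well plates for 48 hours; endpoints were derived by simple linear interpolation of the resulting dose-response curve. TGI: total growth inhibition.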

What all share (assay): inhibition of tumour cell growth, NCI panel, 48 h
In assay [1] the test system is DU-145 prostate.
Assay [2] concerns HCT-15 colon.
For assay [3], the system named is MDA-MB-231 breast.
Assay [4] concerns SF-539 CNS.
Assay [5] relates to SR leukemia.
Assay [6] deals with T-47D breast.
In assay [7] the test system is HL-60(TB) leukemia.
For assay [8], the system named is EKVX NSCLC.
The subject of assay [9] is SK-MEL-5 melanoma.
The subject of assay [10] is SK-MEL-28 melanoma.
Assay [11] relates to SF-295 CNS.

On to `CC(C)(C)NCC(O)COc1cccc2[nH]c(C#N)cc12` (centres undefined), for which the TGI in assay [1], in assay [2], in [3], in assay [4], in assay [5] and in assay [6] was over 100 µM each time. The TGI in assay [7], in assay [8], in assay [9], in assay [10] and in assay [11] was over 100 µM throughout.

With `CCCCCCc1cc(C=O)sc1-c1ccc(-c2sc(-c3ccc(-c4ccc(-c5cc(CCCCCC)c(-c6ccc(-c7sc(C=O)cc7CCCCCC)s6)s5)s4)s3)cc2CCCCCC)s1`, the TGI in assay [1], in [2], in assay [3], in [4], in assay [5] and in [6] was over 100 µM in each case. Also, the TGI in assay [7], in assay [8], in assay [9], in [10] and in assay [11] was over 100 µM each time.

Turning to `COc1cc(/C=C\c2ccc(SC)cc2)cc(OC)c1OC`, the TGI in assay [1] was over 100 µM; in assay [2], 29.4 µM; in assay [3], over 100 µM; in [4], 0.0364 µM; in assay [5], 15.1 µM; in assay [6], over 100 µM. Further, the TGI is 0.463 µM in assay [7]; over 100 µM in assay [8]; 2.72 µM in assay [9]; over 100 µM in [10]; under 0.0204 µM in [11].

Take `COC(=O)c1ccc(/C=C/C2=CC(=O)C=CC2=O)cc1`: the TGI in assay [1] is over 100 µM; in [2] it was 36.8 µM; in [3] it was over 49.2 µM; in [4], 45.6 µM; in assay [5] it was 12.7 µM; in [6] it was 33.5 µM. Further, the TGI in assay [7] was 5.9 µM; in [8], 47.5 µM; in assay [9], over 52 µM; in assay [10], 50.8 µM; in [11], 78.2 µM.

As to `COc1ccc2c(c1)CCC(CN1CCN(CCOC(c3ccc(F)cc3)c3ccc(F)cc3)CC1)=C2`, the TGI in [1] was 49.2 µM; in assay [2], 57.8 µM; in assay [3], 31.8 µM; in assay [4], 42.3 µM; in assay [5] it was 27.7 µM; in assay [6] it was over 100 µM. The TGI was determined as 30.3 µM in [7]; 29.6 µM in assay [8]; 18.5 µM in assay [9]; 77.1 µM in [10]; 87.2 µM in assay [11].

For the molecule `CC(C)(C)c1cc(C2COC(=O)COCCOCC(=O)OCCOCCO2)cc(C(C)(C)C)c1O` (centres undefined), the TGI was 37.1 µM in assay [1]; over 100 µM in assay [2]; over 100 µM in assay [3]; over 100 µM in assay [4]; 64.2 µM in assay [5]; over 31.6 µM in assay [6]. In addition, the TGI in assay [7] is over 100 µM; in assay [8] it was over 100 µM; in assay [9] it was over 100 µM; in assay [10] it was over 100 µM; in assay [11], 53.7 µM.

With `COCOc1cc(OC)ccc1C=O`, the TGI in assay [1] was over 100 µM; in assay [2], over 100 µM; in assay [3], over 100 µM; in [4], 61.9 µM; in assay [5] it was 78.4 µM; in assay [6] it was over 100 µM. The TGI in assay [7], in assay [8], in [9], in [10] and in assay [11] was over 100 µM each time.

With `CC1OC(OC2C(CO)OC(O[C@H]3CC[C@@]4(C)C(=CC[C@H]5[C@@H]6C[C@@H]7O[C@](O)(CC[C@@H](C)COC8OC(CO)C(O)C(O)C8O)[C@@H](C)[C@@H]7[C@@]6(C)CC[C@@H]54)C3)C(OC3OC(C)C(O)C(O)C3O)C2O)C(O)C(O)C1O` (some centres undefined), the TGI in assay [1] came out at 4.97 µM; in assay [2], 3.91 µM; in assay [3], 14.8 µM; in assay [4] it was 4.21 µM; in [5], 11 µM; in assay [6], 17.9 µM. The TGI in assay [7] was 4.14 µM; in assay [8], 57.1 µM; in assay [9] it was 11.6 µM; in assay [10] it was 7.55 µM; in [11], 11.8 µM.

As to `O=[N+]([O-])c1ccccc1S(=O)(=O)N1CCCc2cc(Cl)ccc21`, the TGI was over 100 µM in assay [1]; over 100 µM in assay [2]; over 100 µM in assay [3]; 97.2 µM in assay [4]; over 79.8 µM in assay [5]; 96.5 µM in assay [6]. Moreover, the TGI was 72.2 µM in assay [7]; over 100 µM in [8]; over 100 µM in [9]; over 100 µM in [10]; over 100 µM in assay [11].

`Cc1nn(-c2ccccc2)c(C)c1/C=N/NC(=O)c1sc(=S)n(-c2ccc(Cl)cc2)c1N`: the TGI in assay [1], in assay [2], in assay [3], in [4], in [5] and in assay [6] was over 100 µM each time. The TGI in [7] is over 100 µM; in assay [8], 8.91 µM; in [9] it was 26 µM; in [10], over 100 µM; in assay [11], 5.37 µM.

Consider `COc1ccccc1NC(=S)N/N=C(/c1ccccc1)c1ccccn1`, for which the TGI is 4.95 µM in assay [1]; 20.3 µM in assay [2]; 11.4 µM in [3]; 12 µM in assay [4]; 1.34 µM in assay [5]; 27.2 µM in assay [6]. In addition, the TGI in assay [7] was 2.18 µM; in assay [8] it was 5.46 µM; in assay [9], 6.44 µM; in assay [10] it was 23.9 µM; in [11] it was 7.17 µM.

Consider `COc1cc(O)c(C(=O)/C=C/c2ccc(O)cc2)cc1Oc1ccc(C(=O)/C=C/c2ccc(O)cc2)c(O)c1`, for which the TGI in [1] is 5.78 µM; in assay [2] it was 3.68 µM; in [3], 9.75 µM; in assay [4], 5.51 µM; in assay [5], over 100 µM; in assay [6] it was 8.86 µM. The TGI in [7] is over 100 µM; in assay [8], 5.68 µM; in [9], 4.19 µM; in assay [10], 4.11 µM; in [11], 10.4 µM.

As for `CCOC(=O)c1c(OCC)[nH]c(=O)c(C(c2ccc(F)cc2)c2c(O)c(C(=O)OCC)c(OCC)[nH]c2=O)c1O`, the TGI in assay [1] was determined as 24.3 µM; in assay [2] it was 40.4 µM; in assay [3], 29.8 µM; in assay [4], 23.5 µM; in [5] it was 29 µM; in [6], 32.7 µM. In addition, the TGI came to 54.3 µM in [7]; 33.2 µM in [8]; 25.9 µM in assay [9]; 27 µM in assay [10]; 49.8 µM in assay [11].

As to `CC(C)(C)[C@@H]1NC(=O)CN1C(=O)OCc1ccccc1`, the TGI in assay [1], in [2], in assay [3], in assay [4], in assay [5] and in assay [6] was over 100 µM in each case. The TGI in assay [7], in assay [8], in [9], in [10] and in assay [11] was over 100 µM each time.

In the case of `CCOC(=O)C1(C(=O)OCC)C[C@H]2CON=C2[C@@H]1c1ccc(C(F)(F)F)cc1`, the TGI in assay [1] was over 100 µM; in assay [2], over 100 µM; in [3], over 100 µM; in assay [4], over 100 µM; in assay [5], over 100 µM; in [6] it was 94.3 µM. Also, the TGI is over 100 µM in [7]; 96.6 µM in [8]; over 100 µM in assay [9]; over 100 µM in [10]; over 100 µM in [11].

As to `CCOC(=O)Nc1ccc(S(=O)(=O)Nc2ccc(Br)cc2)cc1`, the TGI is over 100 µM in [1]; over 100 µM in [2]; 93.5 µM in assay [3]; 35.4 µM in assay [4]; 50.4 µM in assay [5]; over 100 µM in assay [6]. Moreover, the TGI in [7] is over 100 µM; in assay [8] it was 89.5 µM; in assay [9] it was 88.7 µM; in [10], over 100 µM; in assay [11] it was 97.8 µM.

On to `CC(=O)C1=CC=C/C1=N\Nc1ccccc1`, for which the TGI is 28.2 µM in assay [1]; 19.2 µM in assay [2]; 24.2 µM in assay [3]; 8.64 µM in [4]; 4.95 µM in assay [5]; 18.3 µM in assay [6]. The TGI is 5.5 µM in assay [7]; 23 µM in assay [8]; 29.8 µM in assay [9]; 27 µM in [10]; 28.2 µM in assay [11].

For `CCC1=C(C)C2=NC1=CC1=NC(=C(CC)/C1=C/O)C=C1N=C3C(=C1C)C(=O)C(C(=O)OC)C3=C1NC(=C2)C(C)C1CCC(=O)OC` (centres undefined), the TGI in [1], in [2], in assay [3], in assay [4], in [5] and in assay [6] was over 100 µM each time. The TGI in assay [7], in assay [8], in [9], in [10] and in assay [11] was over 100 µM in each case.

On to `Cn1c2ccccc2n2c(=O)c(-c3ccc(O)cc3)nnc12`, for which the TGI in assay [1], in [2], in assay [3], in assay [4], in assay [5] and in assay [6] was over 100 µM throughout. For the same molecule, the TGI in assay [7], in assay [8], in [9], in assay [10] and in assay [11] was over 100 µM throughout.

Turning to `COC(=O)c1nc2c(C)c(O)c(O)c([C@H](C)CCC=C(C)C)c2o1`, the TGI was over 100 µM in assay [1]; over 100 µM in [2]; over 100 µM in assay [3]; 35.7 µM in assay [4]; 78.5 µM in [5]; over 100 µM in [6]. Further, the TGI in assay [7] is 45.6 µM; in assay [8] it was over 100 µM; in assay [9], 28.4 µM; in [10], over 100 µM; in assay [11], 47 µM.

For `Cc1cc(SCC(=O)c2ccc(Br)cc2)cc(C)[o+]1`, the TGI is 68.9 µM in assay [1]; over 100 µM in assay [2]; 98.1 µM in assay [3]; 44.5 µM in assay [4]; over 100 µM in assay [5]; 48.8 µM in assay [6]. The TGI in assay [7] worked out at 33.8 µM; in assay [8], 39.9 µM; in assay [9] it was 35.9 µM; in assay [10] it was 42.9 µM; in assay [11] it was 65.6 µM.

Consider `CC(C)C[C@H](NC(=O)[C@@H](Cc1cccc2ccccc12)NC(=O)N1CCOCC1)B(O)O`, for which the TGI in assay [1] is 29.7 µM; in assay [2] it was 50.1 µM; in [3], 20.3 µM; in [4], 4.61 µM; in assay [5], 19.4 µM; in assay [6], 5.43 µM. The TGI in assay [7] is over 24.6 µM; in assay [8], 47.6 µM; in assay [9], 9.24 µM; in assay [10] it was 6.92 µM; in assay [11], 43.8 µM.

With `COc1ccc2c(c1)CC[C@@H]1C2CC[C@]2(C)OC(=O)CCC12` (some centres undefined), the TGI was over 100 µM in assay [1]; over 100 µM in [2]; 11.5 µM in assay [3]; 30.4 µM in [4]; over 100 µM in assay [5]; over 100 µM in assay [6]. In addition, the TGI is over 100 µM in [7]; 21.3 µM in assay [8]; 29.5 µM in [9]; 34.3 µM in [10]; 46.1 µM in [11].

Regarding `CC(=O)c1ccc2c(c1)CC1(C2)Cc2cc3c(cc2C1)C(=O)CC3` (centres undefined), the TGI in assay [1] stood at 25.8 µM; in [2] it was 13.2 µM; in assay [3], 11.2 µM; in assay [4], 3.39 µM; in assay [5] it was 0.963 µM; in assay [6] it was 69.3 µM. Also, the TGI in assay [7] is 2.1 µM; in assay [8] it was over 89.6 µM; in assay [9] it was 11.9 µM; in assay [10], 30.4 µM; in assay [11] it was 13 µM.
